# Assays:
# [1] = species: Cavia porcellus; test: Compound is evaluated for the inhibition of guinea pig ileum contraction caused by 25 ng/mL angiotensin I; type: functional, organism-based
# [2] = Enzyme kinetic inhibition constant against tripeptide, Hip-His-Leu as substrate
# [3] = Enzyme kinetic inhibition constant against tripeptide, Angiotensin I as substrate in a competition inhibition assay
IC50 [1],Ki [2],Ki [3],SMILES
0.05 µg/mL,71.5 nM,,C[C@H](CS)C(=O)N1CCC[C@H]1C(=O)O [CAPTOPRIL]
0.5 µg/mL,106 nM,870 nM,O=C(N[C@@H](Cc1ccccc1)C(=O)CCC(=O)N1CCC[C@H]1C(=O)O)c1ccccc1

# Source: ChEMBL document CHEMBL1121370, “Synthesis and biological activity of a ketomethylene analogue of a tripeptide inhibitor of angiotensin converting enzyme” (J Med Chem, 1980)
